Experimental findings from ChEMBL document CHEMBL3425446, “Isolation, semi-synthesis and bio-evaluation of spatane derivatives from the brown algae Stoechospermum marginatum” (Bioorg Med Chem Lett, 2015) are described below.

The structures appear in SMILES notation. In brackets after ≈: the same amount, converted by molar mass. Activity calls are given as the source filed them. The rule behind the calls is not given here.

Assay [1] can be described thus: Cytotoxicity against human HL60 cells assessed as decrease in cell number after 24 hrs by MTT assay. Particulars: HL-60, 24 h. It counts as functional, cell-based. On the technique in general: Tetrazolium assays rely on reduction of a dye to a coloured formazan, in cell work by metabolically active cells.
For assay [2], the system named is COLO 205. Kind of assay: Cytotoxicity against human COLO205 cells assessed as decrease in cell number after 24 hrs by MTT assay. It counts as functional, cell-based. Particulars: COLO 205, 24 h.
The test system of assay [3] is Klebsiella pneumoniae. In words: Antibacterial activity against Klebsiella pneumoniae assessed as compound concentration required to complete growth inhibition at 8 hrs by tube dilution method. It counts as functional.
Assay [4] has as its system Klebsiella pneumoniae. In words: Antibacterial activity against Klebsiella pneumoniae assessed as growth inhibition at 0.5 mg/ml after 24 hrs by well diffusion method. Particulars: read-out: DIZ. It counts as functional. (In general: A growth-free zone around the sample is the usual read-out of agar diffusion tests.)
The test system of assay [5] is Bacillus subtilis. Kind of assay: Antibacterial activity against Bacillus subtilis assessed as growth inhibition at 0.5 mg/ml after 24 hrs by well diffusion method. It counts as functional. Particulars: read-out: DIZ.
For assay [6], the system named is Micrococcus luteus. Kind of assay: Antibacterial activity against Micrococcus luteus assessed as compound concentration required to complete growth inhibition at 8 hrs by tube dilution method. Format: functional.
Assay [7] concerns Escherichia coli. In words: Antibacterial activity against Escherichia coli assessed as compound concentration required to complete growth inhibition at 8 hrs by tube dilution method. It counts as functional.
Assay [8] is described as follows: Cytotoxicity against mouse B16F10 cells assessed as decrease in cell number after 24 hrs by MTT assay. Format: functional, cell-based. Particulars: B16-F10, 24 h.
Assay [9] concerns Aspergillus niger. Kind of assay: Antifungal activity against Aspergillus niger assessed as growth inhibition at 0.5 mg/ml after 48 hrs by well diffusion method. It counts as functional, organism-based.
Assay [10] deals with Aspergillus fumigatus. Kind of assay: Antifungal activity against Aspergillus fumigatus assessed as growth inhibition at 0.5 mg/ml after 48 hrs by well diffusion method. Format: functional, organism-based.
The test system of assay [11] is Escherichia coli. Kind of assay: Antibacterial activity against Escherichia coli assessed as growth inhibition at 0.5 mg/ml after 24 hrs by well diffusion method. It counts as functional. Particulars: read-out: DIZ.
Assay [12] relates to Bacillus subtilis. In words: Antibacterial activity against Bacillus subtilis assessed as compound concentration required to complete growth inhibition at 8 hrs by tube dilution method. Format: functional.
Assay [13] concerns THP-1. In words: Cytotoxicity against human THP1 cells assessed as decrease in cell number after 24 hrs by MTT assay. Format: functional, cell-based. Particulars: THP-1, 24 h.
Assay [14] can be described thus: Cytotoxicity against human U937 cells assessed as decrease in cell number after 24 hrs by MTT assay. Particulars: U-937, 24 h. It counts as functional, cell-based.
Assay [15] deals with Aspergillus terreus. Kind of assay: Antifungal activity against Aspergillus terreus assessed as growth inhibition at 0.5 mg/ml after 48 hrs by well diffusion method. Format: functional, organism-based.
Assay [16] relates to Micrococcus luteus. In words: Antibacterial activity against Micrococcus luteus assessed as growth inhibition at 0.5 mg/ml after 24 hrs by well diffusion method. Format: functional. Particulars: read-out: DIZ.
In assay [17] the test system is COLO 205. In words: Cytotoxicity against human COLO205 cells assessed as growth inhibition at 200 ug/ml after 24 hrs by MTT assay. It counts as functional, cell-based.
Assay [18] has as its system HL-60. In words: Cytotoxicity against human HL60 cells assessed as growth inhibition at 200 ug/ml after 24 hrs by MTT assay. It counts as functional, cell-based.
Assay [19] relates to B16-F10. Kind of assay: Cytotoxicity against mouse B16F10 cells assessed as growth inhibition at 200 ug/ml after 24 hrs by MTT assay. It counts as functional, cell-based.
Assay [20] relates to U-937. Kind of assay: Cytotoxicity against human U937 cells assessed as growth inhibition at 200 ug/ml after 24 hrs by MTT assay. Format: functional, cell-based.
Assay [21] has as its system THP-1. Kind of assay: Cytotoxicity against human THP1 cells assessed as growth inhibition at 200 ug/ml after 24 hrs by MTT assay. It counts as functional, cell-based.

Consider `C=C(C(=O)/C=C/C(C)=O)[C@@H]1CC(=O)[C@@]2(C)[C@@H]1[C@@H]1[C@H](C)CC[C@@H]12`, for which the IC50 (usually the concentration that inhibits the measured activity by half) was 48.4 µg/mL (≈ 161 µM) in assay [1]; 32 µg/mL (≈ 107 µM) in assay [2]; 3.62 µg/mL (≈ 12.1 µM) in assay [8]; 18.1 µg/mL (≈ 60.3 µM) in assay [13]; 7.52 µg/mL (≈ 25 µM) in assay [14]. In addition, the MIC in [3], in [6], in assay [7] and in assay [12] was 50 µg/mL (≈ 166 µM) in each case. Besides, the zone of inhibition at 500 µg/mL in [4] is 11.3 mm; in assay [5], 10.3 mm; in [11], 11 mm; in assay [16] it was 0 mm. The zone of inhibition came out at 19.3 mm in assay [9], 22 mm in [10] and 19.3 mm in assay [15].
Take `C=C(C(/C=C/C(C)(O)COC(C)=O)OC(C)=O)[C@@H]1C[C@@H](OC(C)=O)[C@@]2(C)[C@@H]1[C@@H]1[C@H](C)CC[C@@H]12` (some centres not stated): the minimal inhibitory concentration (MIC) (usually the least concentration at which growth counts as inhibited) is 200 µg/mL (≈ 432 µM) in assay [3], 100 µg/mL (≈ 216 µM) in [6], 100 µg/mL (≈ 216 µM) in [7] and 100 µg/mL (≈ 216 µM) in assay [12]. In addition, the zone of inhibition at 500 µg/mL in assay [4] came to 16.3 mm; in assay [5] it was 18 mm; in assay [11], 21.3 mm; in assay [16], 17.3 mm. The “growth inhibition (GI)” value in [17] and in assay [18] was “inactive” each time. The results for the IC50 in assay [8], in assay [13] and in [14] were 54.1 µg/mL (≈ 117 µM), 188 µg/mL (≈ 407 µM) and 38.4 µg/mL (≈ 83.1 µM), respectively.
Consider `C=C(CC(=O)C=C(C)C)[C@@H]1CC(=O)[C@@]2(C)[C@@H]1[C@@H]1[C@H](C)CC[C@@H]12`, for which the values for the IC50 in assay [2], in assay [13] and in [14] were 167 µg/mL (≈ 557 µM), 113 µg/mL (≈ 377 µM) and 47.5 µg/mL (≈ 158 µM), respectively. In addition, the MIC is 200 µg/mL (≈ 666 µM) in assay [3], 200 µg/mL (≈ 666 µM) in assay [6], 200 µg/mL (≈ 666 µM) in [7] and 400 µg/mL (≈ 1330 µM) in [12]. Besides, the zone of inhibition at 500 µg/mL in assay [4] stood at 12.7 mm; in assay [5] it was 0 mm; in [11], 10 mm; in assay [16], 11.3 mm. For the same compound, the “growth inhibition (GI)” value in assay [19] and in assay [18] was “inactive” each time.
`C=C(C(O)/C=C/C(C)(O)CO)[C@@H]1C[C@@H](O)[C@@]2(C)[C@@H]1[C@@H]1[C@H](C)CC[C@@H]12` (mixture of isomers): the 50% inhibitory concentration (IC50) in assay [2] was 17.4 µg/mL; in [8], 196 µg/mL; in assay [13], 55.6 µg/mL. Besides, the MIC in assay [3], in [6], in assay [7] and in assay [12] was 200 µg/mL in each case. Further, the zone of inhibition at 500 µg/mL is 12.3 mm in [4], 12.7 mm in assay [5], 11.7 mm in [11] and 12.3 mm in assay [16]. Further, the “growth inhibition (GI)” value in [18] and in assay [20] was “inactive” in each case.
Regarding `C=C(C(O)/C=C/C(C)(O)COC(C)=O)[C@@H]1C[C@@H](O)[C@@]2(C)[C@@H]1[C@@H]1[C@H](C)CC[C@@H]12` (mixture of isomers), the MIC stood at 200 µg/mL in [3], 400 µg/mL in [6], 200 µg/mL in assay [7] and 200 µg/mL in [12]. The zone of inhibition at 500 µg/mL in [4] is 12.3 mm; in [5] it was 10.3 mm; in assay [11], 13 mm; in [16] it was 12 mm. For the same compound, the “growth inhibition (GI)” value in assay [17] and in [18] was “inactive” throughout. For the same compound, the IC50 in assay [8] stood at 99.8 µg/mL; in assay [13] it was 67 µg/mL; in assay [14], 144 µg/mL.
Take `C=C(C(/C=C/C(C)(O)COC(C)=O)OC(C)=O)[C@@H]1C[C@@H](O)[C@@]2(C)[C@@H]1[C@@H]1[C@H](C)CC[C@@H]12` (mixture of isomers): the MIC in assay [3] stood at 200 µg/mL; in assay [6], 100 µg/mL; in assay [7], 100 µg/mL; in assay [12], 100 µg/mL. In addition, the zone of inhibition at 500 µg/mL in assay [4] was determined as 12.7 mm; in assay [5], 11.7 mm; in assay [11], 14.3 mm; in assay [16], 12.3 mm. Also, the “growth inhibition (GI)” value in assay [17], in assay [18], in assay [21] and in assay [20] was “inactive” throughout. Moreover, the IC50 in assay [8] came out at 82 µg/mL.
For `C[C@@H]1C[C@@H]([C@H](O)CC2CC(=O)NC(=O)C2)C(=O)[C@@H](C)C1` [CYCLOHEXIMIDE], the zone of inhibition in [9] was found to be 17.7 mm; in [10], 16.3 mm; in assay [15], 15.7 mm.
The corresponding values for `CC(=O)N1CCN(c2ccc(OCC3COC(Cn4ccnc4)(c4ccc(Cl)cc4Cl)O3)cc2)CC1` (configuration not stated) [KETOCONAZOLE] are 22.7 mm, 20.7 mm and 20 mm.
